Results published in patent publication US7304094B2, “Cyclohexyl sulphones” (Merck Sharp + Dohme, priority 2001, dated 2007).

melting point: 147 to 154 °C
Structure (SMILES): O=C(C[C@H]1CC[C@@](c2cc(F)ccc2F)(S(=O)(=O)c2ccc(Cl)cc2)CC1)c1ncn[nH]1 [Example 91]
